Experimental data reported in patent US20240069011A1, “PREDICTING EFFICACY OF OR RESISTANCE TO TREATMENT OF COLON CANCER” (2cureX A/S, priority 2020, published 2024).

How the values were obtained:
[1] = system: tumoroids from colon cancer patients; assay: Tumoroid ATP content (CellTiter-Glo 3D cell viability assay); format: cell-based, human; conditions: 50% inhibition of total ATP content, day 7, tumoroids from four control patients
Method: The tumoroids were prepared from the same patient samples as described above under “drug sensitivity measured with imaging”. The tumoroids were added to drug screening arrays that we pre-loaded with varying concentrations of Oxaliplatin (3, 10, 30, 100, 300 uM), FOLFOX (0, 1, 0, 3, 1, 3, 10 30 uM. Equal concentrations of 5-Fluorouracil and Oxaliplatin) and SN38 (10, 30, 100, 300, 1000 nM). ATP content of cells in the tumoroids was measured day 0 and on day 7 using CellTiter-Glo 3D cell viability assay (Promega; Catalog number G9681). The homogenous CellTiter-Glo 3D assays generates a luminescent signal that is proportional to the amount of cellular ATP. The assay was conducted in accordance with the instructions from the manufacture (Promega) by allowing the drug screening arrays to equilibrate to room temperature (20-25° C.) and then adding an amount of the CellTiter-Glo 3D reagent to the drug screening arrays. The equal volume of media and reagent is mixed thoroughly for 5 min to induce cell lysis and release of cellular ATP content. The luminescence signal was monitored with the Cytation 1 (BioTek) imaging system operating in luminescence mode. The luminescence signal was quantified by direct comparison to an ATP dose-response curve created by replacing the drug screening media with ATP standards.

[2] = system: tumoroids from colon cancer patients; assay: Tumoroid growth inhibition measured as projected area by imaging (CyQUANT, IndiNet); format: cell-based, human; conditions: 50% inhibition of tumoroid growth (projected area), day 7, tumoroids from four control patients
Method: The tumoroids were prepared from patient samples as described above in Example 2 under “3D tumoroid preparation”. The tumoroids were added to drug screening arrays that we pre-loaded with varying concentrations of Oxaliplatin (3, 10, 30, 100, 300 uM), FOLFOX (0, 1, 0, 3, 1, 3, 10 30 uM. Equal concentrations of 5-Fluorouracil and Oxaliplatin) and SN38 (10, 30, 100, 300, 1000 nM). SN38 is the active components of Irinotecan. At day 6 to day 7 tumoroids were stained with CyQUANT (cell proliferation assay). Tumoroid growth was measured by taking brightfield images on day 0 and visualizing living cells using CyQUANT Cell proliferation assay (ThermoFisher) on day 7. All images were acquired using a Cytation 1 (BioTek) imaging system. For Control patients, tissue from resected tumor was used. This sampling method typically secures bigger amounts of tissue and mechanically as well as enzymatically digestion is performed.
Images from day 0 and day 7 were analysed using the Al image analysis algorithm IndiNet™, which quantifies the projected area (referred to as “area” in this example) of live cells in both brightfield (day 0) and fluorescence (day 7) images and calculates the relative growth inhibition. […]

[3] = Folfox = equal concentrations of 5-Fluorouracil and Oxaliplatin

| IC50 [1] [µM] | IC50 [2] [µM] | Structure (SMILES) | IC50 [1, 3] [µM] | IC50 [2, 3] [µM] |
| --- | --- | --- | --- | --- |
| – | – | O=C1[O][Pt]2([NH][C@@H]3CCCC[C@H]3[NH]2)[O]C1=O [Oxaliplatin, oxaliplatin] | 72.7 | 17.7 |
| 0.0367 | 0.00164 | CCc1c2c(nc3ccc(O)cc13)-c1cc3c(c(=O)n1C2)COC(=O)[C@]3(O)CC [SN38] | – | – |
